# According to the NIST ThermoML archive (doi:10.1021/acs.jced.8b00807):
# Numbers after ± are expanded uncertainties.
# Test: Boiling temperature at pressure P
# Settings: 101.3 kPa; Liquid; Ebulliometric method (Recirculating still)
row,SMILES,Boiling temperature at pressure P
1,"Cc1ccc(C)cc1 [1,4-dimethylbenzene]",138.34 ± 0.2 °C
2,CC(=O)OCC(C)C [2-methylpropyl ethanoate],116.40 ± 0.2 °C
3,CC(=O)OCCC(C)C [3-methylbutyl ethanoate],142.00 ± 0.2 °C
4,COC(C)=O [methyl ethanoate],57.1 ± 0.2 °C
